This is an account of results in publication PMC8648872, “A host-directed macrocyclic peptide therapeutic for MDR gram negative bacterial infections” (Scientific Reports, 2021).

Series [1] deals with Kp-1705 (K. pneumoniae BAA-1705). The experiment in a line: Kp-1705 bacteremic sepsis, survival. It is filed as in vivo, BALB/c mice. The note with it: for long term (≥ 28 days) survival: Kp-1705 i.p. in BALB/c mice. The procedure:
BALB/c mice (Jackson Laboratories) 8–10 weeks of age were acclimated (3–5 to a cage for at least 5 days prior to infection) in a thermostatically controlled room with 12 h light/dark cycle. Cryopreserved K. pneumoniae cells were thawed and adjusted to a density of 6–10 × 10^8 CFU/ml, confirmed by plating on trypticase soy agar (TSA) plates. E. coli BAA-2340 was grown to log-phase in trypticase soy broth, pelleted, washed with PBS, and resuspended in PBS at 0.5–1 × 10^9 CFU/ml. Mice were infected by i.p. injection of 2–5 × 10^8 CFU of Kp-1705 or 3–6 × 10^7 CFU of E. coli BAA-2340 using a 28 g needle in a volume of 0.5 ml. Post-infection, mice were observed three times a day for at least 4 days and then daily for 28 days. Mice were euthanized when they became moribund. All experiments used both male and female mice and were repeated at least twice.

Series [2] is described as follows: Single dose pharmacokinetics (plasma and peritoneal fluid). The note with it: both sexes, mouse, ip, 1.25 mg/kg single i.p., LC-MS/MS. It is filed as in vivo, BALB/c mice. The procedure:
Single dose PK of MTD12813 was evaluated by quantifying plasma peptide concentrations following 1.25 mg/kg injections administered i.p. to 2 M/2F BALB/c mice. EDTA plasma was prepared from blood collected aseptically by terminal cardiac puncture. MTD12813 plasma concentrations were determined by reverse-phase liquid chromatography (XBridge phenyl 3.5 µm column, Waters) on an Acquity H-Class UPLC (Waters) with tandem electrospray mass spectroscopy on a Xevo TQ-S running MassLynx V4.1 (Waters). Quantitative mass spectroscopy was performed by multiple-reaction monitoring transition 394.04 > 519.35, with area under the curve determined by TargetLynx (Waters).
Cryopreserved Kp-1705 was suspended in PBS to a density of ca. 1 × 10^9 CFU/ml, and incubated with saline or 1.25 µg/ml MTD12813 at room temperature for 1 h. […] In vitro antibacterial activity of MTD12813 (1.25 μg/ml) -treated cells (1 h; 37 °C) was determined by plating saline or peptide treated cells on TSA plates. Growth kinetics of saline and MTD12813-treated cells was determined by diluting samples from the 1 h incubation mixtures 1:40 into TSB and monitoring growth (620 nm) for 5.5 h at 37 °C. Antibacterial activity of MTD12813 in PF was determined by i.p. injection of naïve male BALB/c mice (n = 5 per group) with 1.25 mg/kg of MTD12813 or saline i.p. (10 ml/kg). […]

Series [3] has as its system RAW 264.7 macrophages. The experiment in a line: Phagocytosis assay, RAW 264.7 macrophages with live Kp-1705. It is filed as cell-based, mouse. The conditions noted are these: RAW 264.7 cells, live Kp-1705, MOI 50:1, 0–10 µg/ml peptide, 30 min, 37 °C. The protocol: (§1) Mouse RAW 264.7 macrophages (RAW cells; ATCC, TIB-71) were grown in Dulbecco’s Modified Eagle Medium (DMEM) with 10% heat-inactivated fetal bovine serum (HI-FBS) with 100 U/ml penicillin/streptomycin, and suspended to 2–3 × 10^6 cells/ml in fresh media before use.
Kp-1705 was grown overnight, harvested by centrifugation, washed twice, resuspended in Hank’s Balanced Salt Solution (HBSS), and adjusted to a density of 2.5 × 10^8 CFU/ml. Bacteria were pre-incubated with varied concentrations of MTD12813 at room temperature for 30 min, and incubated (MOI 50:1) with RAW cells (2.5 × 10^6 cell/ml) with orbital shaking at 37 °C for 30 min. Cytospin preparations of 100 µl (2.5 × 10^5 RAW cells/slide) samples were then prepared, fixed with methanol, and stained with hematoxylin and eosin (H & E). Slides were viewed at 100× and 50 RAW cells selected from random fields were manually counted for number of cell associated bacteria. All samples were run in duplicate and experiments performed twice.

In series [4] the test system is RAW 264.7 macrophages. As to the kind of experiment: TNF release by LPS-stimulated RAW 264.7 cells. The format is cell-based, mouse. The note with it: RAW 264.7, 5 ng/ml LPS, 2 h, ELISA. The procedure: as §1
RAW cells were seeded into 48-well tissue culture plates at 1–1.5 × 10^5 cells/well and allowed to adhere overnight. Cells were washed twice and suspended in DMEM with 1% FBS with 0–5 µg/ml of MTD12813 immediately followed by addition of 5 ng/ml (25 EU/ml) of E. coli 0111:B4 LPS (Sigma L4391). Plates were incubated for 2 h at 37 °C in 5% CO2. Well contents were removed, clarified by centrifugation, and supernatants frozen at − 80 °C. Supernatant TNF was quantified by mouse TNF ELISA (Invitrogen, Cat #BMS607-3).

Where a SMILES comes first, the peptide text is derived from it. Bridges are numbered along the chain shown (N, C = ends).

Consider `CC[C@H](C)[C@@H]1NC(=O)[C@@H]2CSSC[C@H](NC(=O)[C@H]([C@@H](C)CC)NC(=O)[C@@H]3CSSC[C@H](NC1=O)C(=O)N[C@@H](C(C)C)C(=O)NCC(=O)N[C@@H](CCCNC(=N)N)C(=O)NCC(=O)N3)C(=O)N[C@@H](C(C)C)C(=O)N[C@@H](CCCNC(=N)N)C(=O)N[C@@H](CCCNC(=N)N)C(=O)N[C@@H](CCCNC(=N)N)C(=O)N2` [MTD12813] (cyclo(CICVGRGCICVRRR); disulfide 1-10, 3-8), for which the “long term (≥ 28 days) survival” value in series [1] (single i.p. dose 1.25 mg/kg 1 h p.i.) and in series [1] (single i.p. dose 5 mg/kg 1 h p.i.) was 100% throughout. The “long term survival, timing of treatment” value in series [1] (Kp-1705 i.p., single i.p. 1.25 mg/kg 1 h after infection (+1 h)) was “survived long term”; in series [1] (Kp-1705 i.p., single i.p. 1.25 mg/kg 1 h before infection (−1 h)), “survived long term”; in series [1] (Kp-1705 i.p., single i.p. 1.25 mg/kg 3 h after infection (+3 h), P = 3.9 × 10^–3) it was “half”; in series [1] (Kp-1705 i.p., single i.p. 1.25 mg/kg 3 h prior to infection (−3 h)) it was “nearly equivalent efficacy”. The “survival benefit versus saline” value in series [1] (Kp-1705 i.p., single i.p. dose 0.5 mg/kg 1 h p.i., P = 1.1 × 10^–3) is on record as “survival benefit was still statistically significant”. Besides, in series [2] (naïve BALB/c mice (2M/2F per time point), EDTA plasma, read-out: peak plasma concentration (Cmax)), the Cmax came out at 251 ± 79.8 ng/mL. The Tmax in series [2] (naïve male and female BALB/c mice (2M/2F per time point), plasma) is 15 min. In addition, in the series with RAW 264.7 macrophages [3], the “concentration of maximal phagocytic activity” value worked out at 0.313 µg/mL. Also, the “concentration for 50% TNF suppression relative to RTD-1” value with RAW 264.7 macrophages [4] is “ca. fourfold lower concentration than RTD-1”.
